Laboratory results from ChEMBL document CHEMBL3046898, “Synthesis and characterization of flurbiprofen hydrazide derivatives as potential anti-HCV, anticancer and antimicrobial agents” (2013).
Calls of active or inactive are those of the source. The calls are words filed in the database; no cut-off is given here.

What was measured:
Candida albicans = assay: Antifungal activity against Candida albicans at 10 mg/ml after 48 hrs by disc diffusion method; format: functional, organism-based
Aspergillus = assay: Antifungal activity against Aspergillus at 10 mg/ml after 72 hrs by disc diffusion method; format: functional, organism-based
Staphylococcus cohnii [1] = assay: Antibacterial activity against Staphylococcus cohnii at 10 mg/ml after 24 hrs by disc diffusion method; format: functional
Salmonella paratyphi [2] = assay: Antibacterial activity against Salmonella paratyphi at 10 mg/ml after 24 hrs by disc diffusion method; format: functional, organism-based; settings: Salmonella enterica subsp. enterica serovar Paratyphi A
[3] = system: Schwanniomyces occidentalis; assay: Antifungal activity against Schwanniomyces occidentalis at 10 mg/ml after 48 hrs by disc diffusion method; format: functional, organism-based
Staphylococcus aureus [4] = assay: Antibacterial activity against Staphylococcus aureus at 6.25 to 200 ug/ml after 24 hrs by microwell dilution assay; format: functional, organism-based
T47D = assay: Cytotoxicity against human T47D assessed as cell growth at 10 uM after 48 hrs by SRB assay; format: functional; settings: read-out: Activity
Staphylococcus aureus [5] = assay: Antibacterial activity against Staphylococcus aureus at 10 mg/ml after 24 hrs by disc diffusion method; format: functional
Photorhabdus luminescens [6] = assay: Antibacterial activity against Photorhabdus luminescens at 10 mg/ml after 24 hrs by disc diffusion method; format: functional, organism-based
Micrococcus luteus [7] = assay: Antibacterial activity against Micrococcus luteus at 10 mg/ml after 24 hrs by disc diffusion method; format: functional, organism-based
Micrococcus lylae [8] = assay: Antibacterial activity against Micrococcus lylae at 6.25 to 200 ug/ml after 24 hrs by microwell dilution method; format: functional, organism-based
Hepacivirus hominis = assay: Inhibition of HCV N-terminal His-tagged NS5B RNA dependent RNA polymerase expressed in Escherichia coli DH5alpha using poly rA/U12 as primer at 200 uM after 60 mins by liquid scintillation counting
Proteus vulgaris [9] = assay: Antibacterial activity against Proteus vulgaris at 6.25 to 200 ug/ml after 24 hrs by microwell dilution method; format: functional, organism-based
Candida parapsilosis = assay: Antifungal activity against Candida parapsilosis at 10 mg/ml after 48 hrs by disc diffusion method; format: functional, organism-based
Klebsiella aerogenes [10] = assay: Antibacterial activity against Enterobacter aerogenes at 6.25 to 200 ug/ml after 24 hrs by microwell dilution method; format: functional, organism-based
Kluyveromyces marxianus = assay: Antifungal activity against Kluyveromyces marxianus at 10 mg/ml after 48 hrs by disc diffusion method; format: functional, organism-based
Nakaseomyces glabratus = assay: Antifungal activity against Candida glabrata at 10 mg/ml after 48 hrs by disc diffusion method; format: functional, organism-based
Proteus vulgaris [11] = assay: Antibacterial activity against Proteus vulgaris at 10 mg/ml after 24 hrs by disc diffusion method; format: functional, organism-based
Klebsiella aerogenes [12] = assay: Antibacterial activity against Enterobacter aerogenes at 10 mg/ml after 24 hrs by disc diffusion method; format: functional, organism-based
Micrococcus luteus [13] = assay: Antibacterial activity against Micrococcus luteus at 6.25 to 200 ug/ml after 24 hrs by microwell dilution method; format: functional, organism-based
Staphylococcus cohnii [14] = assay: Antibacterial activity against Staphylococcus cohnii at 6.25 to 200 ug/ml after 24 hrs by microwell dilution assay; format: functional, organism-based
Photorhabdus luminescens [15] = assay: Antibacterial activity against Photorhabdus luminescens at 6.25 to 200 ug/ml after 24 hrs by microwell dilution method; format: functional, organism-based
Pseudomonas aeruginosa [16] = assay: Antibacterial activity against Pseudomonas aeruginosa at 10 mg/ml after 24 hrs by disc diffusion method; format: functional, organism-based
Salmonella paratyphi [17] = assay: Antibacterial activity against Salmonella paratyphi at 6.25 to 200 ug/ml after 24 hrs by microwell dilution method; format: functional, organism-based; settings: Salmonella enterica subsp. enterica serovar Paratyphi A
Escherichia coli [18] = assay: Antibacterial activity against Escherichia coli at 6.25 to 200 ug/ml after 24 hrs by microwell dilution method; format: functional, organism-based
Candida tropicalis = assay: Antifungal activity against Candida tropicalis at 10 mg/ml after 48 hrs by disc diffusion method; format: functional, organism-based
Micrococcus lylae [19] = assay: Antibacterial activity against Micrococcus lylae at 10 mg/ml after 24 hrs by disc diffusion method; format: functional, organism-based
[20] = system: Acinetobacter radioresistens; assay: Antibacterial activity against Acinetobacter radioresistens at 6.25 to 200 ug/ml after 24 hrs by microwell dilution method; format: functional, organism-based
Escherichia coli [21] = assay: Antibacterial activity against Escherichia coli at 10 mg/ml after 24 hrs by disc diffusion method; format: functional, organism-based
[22] = system: Acinetobacter radioresistens; assay: Antibacterial activity against Acinetobacter radioresistens at 10 mg/ml after 24 hrs by disc diffusion method; format: functional, organism-based
Pseudomonas aeruginosa [23] = assay: Antibacterial activity against Pseudomonas aeruginosa at 6.25 to 200 ug/ml after 24 hrs by microwell dilution method; format: functional, organism-based
Pichia membranifaciens = assay: Antifungal activity against Pichia membranifaciens at 10 mg/ml after 48 hrs by disc diffusion method; format: functional, organism-based
Staphylococcus cohnii [24] = assay: Antibacterial activity against Staphylococcus cohnii at 100 to 200 ug/ml after 24 hrs by microwell dilution assay; format: functional, organism-based
Micrococcus luteus [25] = assay: Antibacterial activity against Micrococcus luteus at 100 to 200 ug/ml after 24 hrs by microwell dilution assay; format: functional, organism-based
Staphylococcus aureus [26] = assay: Antibacterial activity against Staphylococcus aureus at 100 to 200 ug/ml after 24 hrs by microwell dilution assay; format: functional, organism-based

SMILES | Activity (Candida albicans) | Activity (Aspergillus) | Activity (Staphylococcus cohnii [1]) | Activity (Salmonella paratyphi [2]) | Activity [3] | Activity (Staphylococcus aureus [4]) | Activity (Staphylococcus aureus [5]) | Activity (Photorhabdus luminescens [6]) | Activity (Micrococcus luteus [7]) | Activity (Micrococcus lylae [8]) | inhibition (Hepacivirus hominis) [%] | Activity (Proteus vulgaris [9]) | Activity (Candida parapsilosis) | Activity (Klebsiella aerogenes [10]) | Activity (Kluyveromyces marxianus) | Activity (Nakaseomyces glabratus) | Activity (Proteus vulgaris [11]) | Activity (Klebsiella aerogenes [12]) | Activity (Micrococcus luteus [13]) | Activity (Staphylococcus cohnii [14]) | further results
CC(C(=O)N/N=C/c1c(F)cccc1F)c1ccc(-c2ccccc2)c(F)c1 (stereo not drawn) | inactive | inactive | inactive | inactive | inactive | inactive | inactive | inactive | inactive | inactive | 8 | inactive | inactive | inactive | inactive | inactive | inactive | inactive | inactive | inactive | growth at 10 µM (T47D): 55.3%; Activity (Photorhabdus luminescens [15]): inactive; Activity (Pseudomonas aeruginosa [16]): inactive; Activity (Salmonella paratyphi [17]): inactive; Activity (Escherichia coli [18]): inactive; Activity (Candida tropicalis): inactive; Activity (Micrococcus lylae [19]): inactive; Activity [20]: inactive; Activity (Escherichia coli [21]): inactive; Activity [22]: inactive; Activity (Pseudomonas aeruginosa [23]): inactive; Activity (Pichia membranifaciens): inactive
CC(C(=O)NN1C(=O)CSC1c1ccc([N+](=O)[O-])o1)c1ccc(-c2ccccc2)c(F)c1 (stereo not drawn) |  |  |  |  |  |  |  |  |  |  | 8 |  |  |  |  |  |  |  |  |  | zone of inhibition at 10000 µg/mL (Staphylococcus cohnii [1]; read-out: DIZ): 10 mm; zone of inhibition at 10000 µg/mL (Staphylococcus aureus [5]; read-out: DIZ): 10 mm; Activity (Staphylococcus cohnii [24]): Active; Activity (Micrococcus luteus [25]): Active; Activity (Staphylococcus aureus [26]): Active
CCCCNC(=S)NNC(=O)C(C)c1ccc(-c2ccccc2)c(F)c1 (stereo not drawn) | inactive | inactive | inactive | inactive | inactive | inactive | inactive | inactive | inactive | inactive | 70 | inactive | inactive | inactive | inactive | inactive | inactive | inactive | inactive | inactive | Activity (Photorhabdus luminescens [15]): inactive; Activity (Pseudomonas aeruginosa [16]): inactive; Activity (Salmonella paratyphi [17]): inactive; Activity (Escherichia coli [18]): inactive; Activity (Candida tropicalis): inactive; Activity (Micrococcus lylae [19]): inactive; Activity [20]: inactive; Activity (Escherichia coli [21]): inactive; Activity [22]: inactive; Activity (Pseudomonas aeruginosa [23]): inactive; Activity (Pichia membranifaciens): inactive
CC(C(=O)NN1C(=O)CSC1c1ccc(F)cc1)c1ccc(-c2ccccc2)c(F)c1 (stereo not drawn) | inactive | inactive | inactive | inactive | inactive | inactive | inactive | inactive | inactive | inactive | 8 | inactive | inactive | inactive | inactive | inactive | inactive | inactive | inactive | inactive | Activity (Photorhabdus luminescens [15]): inactive; Activity (Pseudomonas aeruginosa [16]): inactive; Activity (Salmonella paratyphi [17]): inactive; Activity (Escherichia coli [18]): inactive; Activity (Candida tropicalis): inactive; Activity (Micrococcus lylae [19]): inactive; Activity [20]: inactive; Activity (Escherichia coli [21]): inactive; Activity [22]: inactive; Activity (Pseudomonas aeruginosa [23]): inactive; Activity (Pichia membranifaciens): inactive
Cc1cc(C)c(/C=N/NC(=O)C(C)c2ccc(-c3ccccc3)c(F)c2)c(C)c1 (stereo not drawn) | inactive | inactive | inactive | inactive | inactive | inactive | inactive | inactive | inactive | inactive | 8 | inactive | inactive | inactive | inactive | inactive | inactive | inactive | inactive | inactive | Activity (Photorhabdus luminescens [15]): inactive; Activity (Pseudomonas aeruginosa [16]): inactive; Activity (Salmonella paratyphi [17]): inactive; Activity (Escherichia coli [18]): inactive; Activity (Candida tropicalis): inactive; Activity (Micrococcus lylae [19]): inactive; Activity [20]: inactive; Activity (Escherichia coli [21]): inactive; Activity [22]: inactive; Activity (Pseudomonas aeruginosa [23]): inactive; Activity (Pichia membranifaciens): inactive
CC(C(=O)N/N=C/c1ccccc1Cl)c1ccc(-c2ccccc2)c(F)c1 (stereo not drawn) | inactive | inactive | inactive | inactive | inactive | inactive | inactive | inactive | inactive | inactive | 8 | inactive | inactive | inactive | inactive | inactive | inactive | inactive | inactive | inactive | Activity (Photorhabdus luminescens [15]): inactive; Activity (Pseudomonas aeruginosa [16]): inactive; Activity (Salmonella paratyphi [17]): inactive; Activity (Escherichia coli [18]): inactive; Activity (Candida tropicalis): inactive; Activity (Micrococcus lylae [19]): inactive; Activity [20]: inactive; Activity (Escherichia coli [21]): inactive; Activity [22]: inactive; Activity (Pseudomonas aeruginosa [23]): inactive; Activity (Pichia membranifaciens): inactive
CC(C(=O)NN1C(=O)CSC1c1ccccc1Cl)c1ccc(-c2ccccc2)c(F)c1 (stereo not drawn) | inactive | inactive | inactive | inactive | inactive | inactive | inactive | inactive | inactive | inactive | 70 | inactive | inactive | inactive | inactive | inactive | inactive | inactive | inactive | inactive | Activity (Photorhabdus luminescens [15]): inactive; Activity (Pseudomonas aeruginosa [16]): inactive; Activity (Salmonella paratyphi [17]): inactive; Activity (Escherichia coli [18]): inactive; Activity (Candida tropicalis): inactive; Activity (Micrococcus lylae [19]): inactive; Activity [20]: inactive; Activity (Escherichia coli [21]): inactive; Activity [22]: inactive; Activity (Pseudomonas aeruginosa [23]): inactive; Activity (Pichia membranifaciens): inactive
